From US8575310B2, “Bioactive pentapeptides from rice bran and use thereof” (Board of Trustees of the University of Arkansas, priority 2009, dated 2013)
No end group written: not given here.

Assays:
Assay type in all cases: cell-based, human
colon cancer cells = conditions: pH 7
Protocol: An RSM design with a 3-factorial model was designed to use combinations of pH, RH (relative humidity), temperature and degree of glycosylation to evaluate enhanced anti-cancer activity of a modified (glycosylated) peptide. Peptide-glucose mixture samples were prepared at the following conditions/combinations: RH 55, 65, & 75 at pHs 6, 7 and 8 maintained at 40, 50 and 60° C. temperatures and tested for growth inhibition activity on colon cancer cells. The degree of glycosylation increased with increasing time at varying RH, and achieved a maximum of ˜20% degree of glycosylation.
Optimization for Degree of Glycosylation: The bioactive pentapeptide (0.02 g) (SEQ ID NO: 1) and D-glucose (0.002 g) were dissolved in water to give a 10% (w/v) protein solution. The solution pH was adjusted to varying pHs based on RSM design (6, 7, 8) and stirred for 10 min, and freeze-dried. The freeze-dried mixture was placed on an aluminum plate, and incubated at 50° C. at varying relative humidity ([…], 65%, 75%) based on the RSM design illustrated below in Table 3.

[1] = test system: amyloid-induced neuroblastoma cells (IMR-32); assay: Protection against amyloid beta (1-42) toxicity in neuroblastoma cells, MTS assay; conditions: compared to amyloid-induced cells not treated with peptides
Protocol: Evaluation of Anti-Alzheimer's Disease Activity: Human neuroblastoma cells (IMR-32-ATCC Number CCL-127) was used as model system to evaluate the protective role of rice bran peptide fractions against amyloid beta (1-42) (Cat. No. PP69, EMD Chemicals, Inc., San Diego, Calif.) dependent toxicity. Human neuroblastoma cells were grown in the presence of beta amyloid peptide with and without bran peptide fractions at different levels. Cell survival to the amyloid-induced neuroblastoma cells upon bran peptide treatments was examined by the MTS [(3-(4,5-dimethylthiazole-2-yl)-5-(3-carboxymethoxyphenyl)-2-(4-sulfophenyl)-2H-tetrazolium, inner salt] assay, and compared to the cytotoxicity observed with amyloid-induced neuroblastoma cells.
Neuroblastoma cells were treated with amyloid peptide followed by treatment with rice bran peptide fractions. Cytotoxicity to the amyloid-induced neuroblastoma cells was examined by the MTS assay.

Caco-2 cells = assay: Trypan blue dye exclusion assay, viability of Caco-2 cells; conditions: 200 μM concentration
Protocol: Human Cancer Cell Cultures. Human colon epithelial cancer cell line Caco-2, liver epithelial cancer cell line HepG2 and breast epithelial cancer cell line HTB-26 were cultured separately at 37° C. in Dulbecco's Modified Eagles Medium (DMEM) in the presence of 10% fetal bovine serum, supplemented with 1 mM L-glutamine, sodium pyruvate, 1 mM sodium bicarbonate, and 50 μg/mL gentamycin. Human lung epithelial cancer cell line NCI-H1299 was cultured in RPMI-1640 medium supplemented with 10% fetal bovine serum. After cell growth reached 70%, cell viability was monitored by employing the trypan blue dye exclusion assay after peptide treatments. Briefly, the monolayer was allowed to grow for 2-3 days at 37° C. on 24-well flat-bottom plates. One hundred microliters (100 μL) of rice bran peptide fractions at 1 mg/mL protein content was added to the cultures. For positive control genistein at 200 and 400 μM in saline and for negative control saline alone was used. After 24-48 h of treatments, the medium was removed, and the cells were briefly dissociated with 0.1% trypsin and 0.53 mM ethylenediaminetetraacetic acid (EDTA) solution. Following this, 0.5% trypan blue dye mixed in growth medium was added to each well. Samples were then aspirated from each well and loaded onto chambers in a hemocytometer cell, and cell counts were taken. […]

EQRPR [bioactive pentapeptide, Glu-Gln-Arg-Pro-Arg]
cancer cell activity inhibition (colon cancer cells): ~80%
reduction in cytotoxicity of amyloid-induced neuroblastoma cells [1]: ~45%

O=c1c(-c2ccc(O)cc2)coc2cc(O)cc(O)c12 [Genistein]
viable cells on Caco-2 cell line (Caco-2 cells): 20000 viable cells/mL
